Test results from patent US20240308996A1, “PYRIDOPYRIDINES AND DERIVATIVES THEREOF AS SELECTIVE KINASE INHIBITORS” (University of Sharjah, priority 2023, published 2024).

Columns and labels:
Format in all cases: cell-based
[1] = test system: CCRF-CEM; assay: NCI-60 cell line panel: CCRF-CEM; settings: Leukemia
Protocol: (§1) It was carried out at the NCI, Bethesda, MD, USA, utilizing their standard protocol.

[2] = test system: HL-60(TB); assay: NCI-60 cell line panel: HL-60(TB); parameters: TGI: unit not given here; settings: Leukemia
Protocol: as §1

[3] = test system: K-562; assay: NCI-60 cell line panel: K-562; parameters: TGI: unit not given here
Protocol: as §1

[4] = test system: RPMI-8226; assay: NCI-60 cell line panel: RPMI-8226; settings: Leukemia
Protocol: as §1

[5] = test system: SR; assay: NCI-60 cell line panel: SR; settings: Leukemia
Protocol: as §1

[6] = test system: A549/ATCC; assay: NCI-60 cell line panel: A549/ATCC; settings: Non-Small Cell Lung Cancer
Protocol: as §1

[7] = test system: HOP-92; assay: NCI-60 cell line panel: HOP-92; parameters: TGI: unit not given here; settings: Non-Small Cell Lung Cancer
Protocol: as §1

[8] = test system: NCI-H322M; assay: NCI-60 cell line panel: NCI-H322M; settings: Non-Small Cell Lung Cancer
Protocol: as §1

[9] = test system: NCI-H522; assay: NCI-60 cell line panel: NCI-H522; parameters: TGI: unit not given here; settings: Non-Small Cell Lung Cancer
Protocol: as §1

[10] = test system: HCC-2998; assay: NCI-60 cell line panel: HCC-2998; settings: Colon Cancer
Protocol: as §1

[11] = test system: HCT-15; assay: NCI-60 cell line panel: HCT-15; settings: Colon Cancer
Protocol: as §1

[12] = test system: HT29; assay: NCI-60 cell line panel: HT29
Protocol: as §1

[13] = test system: KM12; assay: NCI-60 cell line panel: KM12; settings: Colon Cancer
Protocol: as §1

[14] = test system: SW-620; assay: NCI-60 cell line panel: SW-620; settings: Colon Cancer
Protocol: as §1

[15] = test system: SF-268; assay: NCI-60 cell line panel: SF-268; settings: CNS Cancer
Protocol: as §1

[16] = test system: LOX IMVI; assay: NCI-60 cell line panel: LOX IMVI; settings: Melanoma
Protocol: as §1

[17] = test system: M14; assay: NCI-60 cell line panel: M14; settings: Melanoma
Protocol: as §1

[18] = test system: MDA-MB-435; assay: NCI-60 cell line panel: MDA-MB-435; parameters: TGI: unit not given here; settings: Melanoma
Protocol: as §1

[19] = test system: SK-MEL-28; assay: NCI-60 cell line panel: SK-MEL-28; settings: Melanoma
Protocol: as §1

[20] = test system: SK-MEL-5; assay: NCI-60 cell line panel: SK-MEL-5; settings: Melanoma
Protocol: as §1

[21] = test system: UACC-62; assay: NCI-60 cell line panel: UACC-62; settings: Melanoma
Protocol: as §1

[22] = test system: IGROV1; assay: NCI-60 cell line panel: IGROV1
Protocol: as §1

[23] = test system: OVCAR-8; assay: NCI-60 cell line panel: OVCAR-8; settings: Ovarian Cancer
Protocol: as §1

[24] = test system: SK-OV-3; assay: NCI-60 cell line panel: SK-OV-3; settings: Ovarian Cancer
Protocol: as §1

[25] = test system: 786-0; assay: NCI-60 cell line panel: 786-0; settings: Renal Cancer
Protocol: as §1

[26] = test system: A498; assay: NCI-60 cell line panel: A498; settings: Renal Cancer
Protocol: as §1

[27] = test system: ACHN; assay: NCI-60 cell line panel: ACHN; settings: Renal Cancer
Protocol: as §1

[28] = test system: RXF 393; assay: NCI-60 cell line panel: RXF 393; settings: Renal Cancer
Protocol: as §1

[29] = test system: SN12C; assay: NCI-60 cell line panel: SN12C; settings: Renal Cancer
Protocol: as §1

[30] = test system: DU-145; assay: NCI-60 cell line panel: DU-145; settings: Prostate Cancer
Protocol: as §1

[31] = test system: HS 578T; assay: NCI-60 cell line panel: HS 578T
Protocol: as §1

[32] = test system: HepG2; assay: MTT assay, HepG2 HCC cell line; settings: Homo sapiens, 48 h, mean of triplicate assays ± SEM
Protocol: (§2) Two HCC cell lines (Hep3B and HepG2) were used for screening the antiproliferative activity of the synthesized compounds. The cell lines were obtained from the European Collection of Cell Cultures (ECACC, UK) and maintained in Dulbecco's Modified Eagle Medium (DMEM: Sigma-Aldrich) supplemented with 10% fetal bovine serum (FBS) and 1% penicillin/streptomycin and incubated at 37° C. in a 5% CO2 air atmosphere. In addition, WI-38 normal cell line was used to investigate the safety of these compounds.
(§3) MTT assay was conducted to calculate the IC50 of the compounds following the reported procedure . Briefly, the cells were seeded in 96-well tissue culture plates with a density of 5×10^4 cells/well and incubated overnight at 37° C. in a 5% CO2 air atmosphere. […] DMSO was used as a negative control. After 48 h, the media were aspirated, and replaced with media containing 0.5 mg/mL of MTT tetrazolium dye (Sigma-Aldrich) for 2 h at 37° C. Finally, the media were removed and 200 μL of DMSO was added to solubilize the formazan crystals. Absorbance was then measured at 570 nm using Varioskan Flash multimode plate reader (Thermo Scientific, Massachusetts, USA).

[33] = test system: Hep3B; assay: MTT assay, Hep3B HCC cell line; settings: Homo sapiens, 48 h, mean of triplicate assays ± SEM
Protocol: as §2, §3

## CCN1CCN(c2ccc(NC(=O)Nc3ccc(-c4cc(C(=O)NC(C)C)c5ncccc5n4)cc3)cc2C(F)(F)F)CC1 [Compound 13f, 2-(4-(3-(4-(4-Ethylpiperazin-1-yl)-3-(trifluoromethyl)phenyl)ureido)phenyl)-N-isopropyl-1,5-naphthyridine-4-carboxamide]
[1]; Homo sapiens
  IC50: 1010 nM
[1]; total growth inhibition
  TGI: 3100 nM
[2]; Homo sapiens
  IC50: 1070 nM
[2]; total growth inhibition
  TGI: 5.89
[3]; Homo sapiens, K562, Leukemia
  IC50: 1000 nM
[3]; Leukemia, total growth inhibition
  TGI: >34.5
[4]; Homo sapiens
  IC50: 1040 nM
[4]; total growth inhibition
  TGI: > 34500 nM
[5]; Homo sapiens
  IC50: 1050 nM
[5]; total growth inhibition
  TGI: 12100 nM
[6]; Homo sapiens
  IC50: 1140 nM
[6]; total growth inhibition
  TGI: 5770 nM
[7]; Homo sapiens
  IC50: 3140 nM
[7]; total growth inhibition
  TGI: 8.29
[8]; Homo sapiens
  IC50: 1850 nM
[8]; total growth inhibition
  TGI: 7240 nM
[9]; Homo sapiens
  IC50: 3520 nM
[9]; total growth inhibition
  TGI: 8.43
[10]; total growth inhibition
  TGI: 5090 nM
[10]; Homo sapiens
  IC50: 1440 nM
[11]; total growth inhibition
  TGI: 1350 nM
[11]; Homo sapiens
  IC50: 670 nM
[12]; Colon Cancer, total growth inhibition
  TGI: 1320 nM
[12]; Homo sapiens, HT-29, Colon Cancer
  IC50: 670 nM
[13]; total growth inhibition
  TGI: 2910 nM
[13]; Homo sapiens
  IC50: 1010 nM
[14]; total growth inhibition
  TGI: 1260 nM
[14]; Homo sapiens
  IC50: 640 nM
[15]; total growth inhibition
  TGI: 10900 nM
[15]; Homo sapiens
  IC50: 3560 nM
[16]; Homo sapiens
  IC50: 560 nM
[16]; total growth inhibition
  TGI: 1050 nM
[17]; Homo sapiens
  IC50: 720 nM
[17]; total growth inhibition
  TGI: 1900 nM
[18]; Homo sapiens
  IC50: 650 nM
[18]; total growth inhibition
  TGI: 1.31
[19]; Homo sapiens
  IC50: 750 nM
[19]; total growth inhibition
  TGI: 1850 nM
[20]; Homo sapiens
  IC50: 1410 nM
[20]; total growth inhibition
  TGI: 5280 nM
[21]; Homo sapiens
  IC50: 3990 nM
[21]; total growth inhibition
  TGI: 8280 nM
[22]; Homo sapiens, IGROV-1, Ovarian Cancer
  IC50: 1420 nM
[22]; Ovarian Cancer, total growth inhibition
  TGI: 5110 nM
[23]; Homo sapiens
  IC50: 5690 nM
[23]; total growth inhibition, in µM (unit assumed)
  TGI: 17.5
[24]; Homo sapiens
  IC50: 5330 nM
[24]; total growth inhibition
  TGI: 1080 nM
[25]; Homo sapiens
  IC50: 500 nM
[25]; total growth inhibition
  TGI: 1030 nM
[26]; Homo sapiens
  IC50: 5110 nM
[26]; total growth inhibition
  TGI: 9700 nM
[27]; Homo sapiens
  IC50: 1020 nM
[27]; total growth inhibition
  TGI: 3470 nM
[28]; Homo sapiens
  IC50: 650 nM
[28]; total growth inhibition
  TGI: 1730 nM
[29]; Homo sapiens
  IC50: 670 nM
[29]; total growth inhibition
  TGI: 1380 nM
[30]; Homo sapiens
  IC50: 750 nM
[30]; total growth inhibition
  TGI: 1580 nM
[31]; Breast Cancer, HS 578T, total growth inhibition
  TGI: 3450 nM
[31]; Homo sapiens, Hs-578T
  IC50: 880 nM
[32]
  IC50: 460 ± 60 nM
[33]
  IC50: 1090 ± 140 nM
